Consider 3 compounds from patent US20210213010A1, “TLR7/8 AGONISTS AND LIPOSOME COMPOSITIONS” (Torque Therapeutics, Inc., priority 2018, published 2021).

Data set [1] can be described thus: Cryo-TEM of remote loaded liposomes (intraliposomal precipitation). In kind it is physicochemical. The settings on record: remote loaded liposomes, Example 75. As to the method: CryoTEM samples of 3 μL of liposome solution was placed on a lacy carbon 300 mesh copper TEM grid, blotted and plunge frozen in liquid ethane using a FEI Vitrobot Mark IV. Samples were imaged using a FEI Tecnai G2 20 TWIN transmission electron microscope operated at 200 keV in low dose mode with a FEI High-Sensitive (HS) 4 k×4 k Eagle camera.

Data set [2] can be described thus: Cytokine/chemokine release kinetics in blood of non-tumor bearing B6D2F1/J mice (Luminex). In kind it is in vivo, mouse. As to conditions: single dose; 4 mg/kg Gdq or 2 mg/kg KRJ2-110 systemic, or loaded PMEL cells; 0-24 hr. How it is done: Spleens and lymphnodes were harvested from PMEL mice (B6. Cg-Thy1^a/Cy Tg(TcraTcrb)8Rest/J, Jackson Labs) and CD8 T cells purified by Mylteni MACS T cell separation kit. PMEL cells were stimulated and expanded on anti-CD3/CD28 coated plates with mouse IL2/IL7/IL21 cytokines and harvested for use. The cytokine/chemokine release profile in non-tumor bearing B6D2F1/J mice (Jackson Labs) was evaluated by injecting: • 20×10^6 PMEL cells alone, 20×10^6 PMEL cells loaded with 2.5 ant-CD45 Ab/liposome, 10% DOTAP, 35% cholesterol, 0.6% DSPE-PEG, POPC liposomes Gardiquimod pH gradient loaded as previously described (˜200 nmol gardiquimod, single dose) • 4 mg/kg Gdq systemic (no PMEL, single dose) • 2 mg/kg KRJ2-110 systemic (no PMEL, single dose)
Blood was drawn at 0, 0.25, 0.5, 1, 2, 4, 6, 10 and 24 hr and plasma was recovered for cytokine/chemokine quantitation using a Luminex kit. […] IP10 and TNFa are commonly used biomarkers for TLR7 agonists in human studies indicating these may be useful biomarkers in clinical studies for T cells loaded with TLR7 agonists.

In data set [3] the test system is RAW Blue cells. Nature of the data set: Potency of TLR7 agonist compound library in RAW Blue TLR reporter cells. In kind it is cell-based. The settings on record: fold more potent. How it is done:
A general synthesis scheme is shown in FIG. 1A according to the procedure by Wu et al. Immunotherapeutic activity of a conjugate of a Toll-like receptor 7 ligand. Proc. Natl. Acad. Sci. 104, 3990-3995 (2007), with some modifications and in good yields. Final derivatization using standard amide bond formation or reductive amination conditions, gave the desired library of 22 compounds divided into two sets (set 1, 1a-1j and set 2, 2a-2j). Next it was evaluated if the synthesized compounds had retained their activity upon derivatization. As benchmarks, the known TLR agonists Gardiquimod (Gdq, TLR7) and Resiquimod (R848, TLR7/8) were used.

Data set [4] deals with B16-F10 tumor. The data set is described as follows: In vivo immune profiling by flow cytometry in B16-F10 tumor bearing mice (Example 87). Also noted: species or system mouse. How it is done:
Spleens and lymphnodes were harvested from PMEL mice (B6. Cg-Thy1^a/Cy Tg(TcraTcrb)8Rest/J, Jackson Labs) and CD8 T cells purified by Mylteni MACS T cell separation kit. PMEL cells were stimulated and expanded on anti-CD3/CD28 coated plates with mouse IL2/IL7/IL21 cytokines, harvested and loaded with liposomes for evaluation in vivo. PMEL cells at 50×10^6/mL were incubated with liposomes at 10 mM lipid concentration for 60 minutes at 37 C, washed twice and formulated in HBSS prior to injection into the mice. Briefly, 100 ul of 1×10^6 B16-F10 cells formulated in HBSS were injected SubQ (SQ) and grown for 10 days prior to treatment. 1 day prior to treatment, 4 mg/mouse of cyclophosphamide (CPX) was injected intraperitoneal (IP) with 200 ul at 20 mg/mL in phosphate buffered saline (PBS). There were 10 mice used per group and all treatments were injected intravenous (IV) via tail vein injection, the groups were as follows: • HBSS alone (single dose) • 20×10^6 PMEL cells/mouse (single dose) • 20×10^6 PMEL cells/mouse backpacked with 1.5% Arg3-Chol, 10% DSTAP, 35% cholesterol, 0.5% DSPE-PEG, DSPC, pH gradient loaded as previously described with KRJ2-110 (single dose) • 20×10^6 PMEL cells/mouse followed by 2 mg/kg KRJ2-110 systemically on day 0 (small molecule delivered 1 hr after cell dose)
Blood was sampled at 24 hr, 4 days and 7 days for plasma isolation and cytokine/chemokine characterization by Luminex. Tissues and organs were harvested on day 4 and 7 for analysis by flow cytometry and Luminex.

Data set [5] has as its system B16-F10 tumor. Nature of the data set: B16-F10 tumor model with adoptive cell transfer of PMEL cells (Example 80). Format: in vivo, mouse. As to conditions: for Weight of tumor bearing mice: versus HBSS, PMEL alone and PMEL loaded with Gdq liposomes. How it is done:
Spleens and lymphnodes were harvested from PMEL mice (B6. Cg-Thy1^a/Cy Tg(TcraTcrb)8Rest/J, Jackson Labs) and CD8 T cells purified by Mylteni MACS T cell separation kit. PMEL cells were stimulated and expanded on anti-CD3/CD28 coated plates with mouse IL2/IL7/IL21 cytokines, harvested and loaded with liposomes for evaluation in vivo. PMEL cells at 50×10^6/mL were incubated with liposomes at 10 mM lipid concentration for 60 minutes at 37 C, washed twice and formulated in HBSS prior to injection into the mice. In vivo study details show below. Briefly, 100 ul of 0.5×10^6 B16-F10 cells formulated in HBSS were injected SubQ (SQ) or intra-dermal (ID) and grown for 9 days prior to treatment. 1 day prior to treatment, 4 mg/mouse of cyclophosphamide (CPX) was injected intraperitoneal (IP) with 200 ul at 20 mg/mL in phosphate buffered saline (PBS). There were 10 mice used per group and all treatments were injected intravenous (IV) via tail vein injection, the groups were as follows: • HBSS alone (single dose) • 20×10^6 PMEL cells/mouse (single dose) • 20×10^6 PMEL cells/mouse backpacked with 2.5 antiCD45 Ab/liposome, 10% DOTAP, 35% cholersterol, 0.6% DSPE-PEG, POPC, pH gradient loaded as previously described with Gardiquimod (˜200 nmol Gardiquimod/mouse, single dose) • 20×10^6 PMEL cells/mouse followed by 4 mg/kg Gardiquimod systemically on day 0 (treatment day, day 6, day 13, day 25 • 20×10^6 PMEL cells/mouse followed by 2 mg/kg KRJ2-110 systemically on day 0 (treatment day), day 6, day 13, day 25

For data set [6] the following is noted: amine in conjugation with the aromatic system; cited from earlier work.
Data set [7] deals with RAW-Blue cells. Nature of the data set: NF-κB induction in RAW-Blue reporter cells (RAW 264.7 macrophages, SEAP). As to conditions: RAW-Blue; sigmoidal 4PL fitting, 24 h. Format: cell-based. The gist of the method:
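RAW 264.7 macrophages with NF-κB-inducible SEAP, 100×10^3 cells/well, exposed to compound dilutions (from DMSO stocks in PBS) for 24 h at 37 °C, triplicate. Supernatant SEAP read with QUANTI-Blue at 640 nm after 3–6 h, normalized to DMSO blank; EC50 from 4PL fits.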

Data set [8] has as its system whole human blood. Nature of the data set: IL-12p40 cytokine expression in stimulated whole human blood (ELISA). Format: cell-based. As to conditions: drug/lipid ratio 0.1. How it is done:
(§1) This example describes the general procedure used to assess the level of cytokine IL-6 and IL-12p40 expressions upon stimuli of whole human blood with small molecules or small molecules in liposomal formulations F1 and F2. 10 mM DMSO solutions of the small molecules were diluted in RPMI media (RPMI-1640, Sigma Aldrich) with 1% penicillin/streptomycin (p/s). […], of each dilution was transferred to Nunc™ 96-Well Polystyrene Conical Bottom MicroWell™ Plates in duplicates. Blood was drawn from two human donors, diluted in RPMI with 1% p/s and added to each well to reach final concentrations of 10 μM, 1 μM, and 0.1 μM of the small molecules. The plates were incubated at 37° C. in a cell incubator for 24h. The plates were then spun down in a plate centrifuge with 3200 revolutions per minute (rpm) for 10 min before 50 uL of the supernatant was transferred to new 96-well plates. The supernatant samples were subsequently stored at −80° C. until the day of cytokine measurements.
(§2) The level of cytokine expression was measured using either an IL-6 ELISA Kit (RnDSystems, cat #DY206) for IL-6, or an IL-12p40 ELISA Kit (RnDSystems, cat #DY1240) according to the manufacturer's protocols. This general procedure was used to generate the examples 24-33.
In general terms: In an ELISA, binding on a coated surface is turned into a signal by an enzyme label.

In data set [9] the test system is whole human blood. Nature of the data set: IL-6 cytokine expression in stimulated whole human blood (ELISA). Format: cell-based. How it is done:
as §1, §2

Data set [10] is described as follows: Remote loading efficiency of small molecules into liposomes (PD-10 size exclusion, HPLC). In kind it is physicochemical. As to conditions: for Remote loading efficiency 1 h (%): drug/lipid ratio 0.10, 1 h; for Remote loading efficiency 3 h (%): drug/lipid ratio 0.10, 3 h. Put shortly:
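A lyophilized small-molecule powder (modified TLR agonist) was combined with liposome formulation at the desired drug/lipid ratio and stirred at elevated temperature. At 1 h and 3 h, 100 μL of mixture plus 900 μL buffer (25 mM HEPES, 10 vol % sucrose, pH 7.4) went onto a PD-10 size exclusion column. Ten 1 mL fractions were collected, and HPLC quantified compound in the liposome fractions as a percentage of the amount applied.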
In general terms: In gel filtration, larger molecules generally elute earlier.

“Also recorded” adds a separate entry of the source.

Regarding `COCCOc1nc(N)c2nc(O)n(Cc3ccc(CN)cc3)c2n1` [KRJ2-110, 6-amino-9-(4-(aminomethyl)benzyl)-2-(2-methoxyethoxy)-9H-purin-8-ol], the “Crystallization within liposomes (Cryo-TEM)” value in [1] is “crystallizes inside the liposomes”. Also, the “Proinflammatory cytokines such as IFNg, IL12 in blood” value in data set [2] is listed as “significant increase in proinflammatory cytokines”. Moreover, the “In vitro potency in a RAW cell assay relative to Gardiquimod” value in data set [3] is on record as roughly 10 ×. Also, in [4] (4 and 7 days after ACT), the “Activation of PMEL T cells in LN” value is given as “Increases activation of PMEL T cells in LN”, the “Exhaustion of PMEL cells (PD1+/LAG3+)” value is “Slightly increases exhaustion” and the “MHCII expression in the tumor” value was “Increases MHCII expression in the tumor”. Also, the “Monocytic and Granulocytic MDSC density in the tumor” value in data set [4] (7 days after ACT) is reported as “Does not markedly affect MDSC”. The “Abundance of cDC1 and pDC in the tumor” value in data set [4] (after ACT) is “Transiently increases the abundance of cDC1 and pDC”. Further, the “Proliferation of PMEL T cells (Ki67)” value in [4] (blood, spleen and tumor, 4 days after ACT) is listed as “Virtually no effect on PMEL T cell proliferation”. For the same compound, the “B16-F10 tumor growth after adoptive cell transfer” value in [5] (PMEL cells plus 2 mg/kg KRJ2-110 or 4 mg/kg Gardiquimod systemically, or liposome loaded PMEL) is reported as “more efficacious”. For the same compound, the “Weight of tumor bearing mice” value in [5] is given as “more substantial weight loss”.
Regarding `CCOCc1nc2c(N)nc3ccccc3c2n1CC(C)(C)O` [R848, Resiquimod, reference compound], in data set [6], the “pKa of the conjugate acid” value is “approximately 4”. In [7], the half-maximal effective concentration (EC50) – broadly, the midpoint of the concentration-response curve – was determined as 150 nM.
For `CCNCc1nc2c(N)nc3ccccc3c2n1CC(C)(C)O` [Gardiquimod, reference compound], the “Expression of IL-12p40 upon stimulation of whole human blood” value was “none of the small molecules Gardiquimod, MK087, MK088, and MK089 were capable of inducing expression of IL-12p40” in [8] (remote loaded in formulation F1, HEPES); “capable of inducing expression of IL-12p40 in one donor at 10 μM” in data set [8] (remote loaded in formulation F2, HEPES). Also, the “Expression of IL-6 upon stimulation of whole human blood” value in data set [9] (free small molecule, 10, 1, 0.1 μM, 24 h, two donors) is given as “induced expression of IL-6 at 10 μM in donor 2”; in data set [9] (remote loaded in formulation F1, HEPES, drug/lipid ratio 0.1), “No induction of IL-6 expression”; in [9] (remote loaded in formulation F2, HEPES, drug/lipid ratio 0.1), “capable of inducing expression of IL-6 at 10 μM; also recorded: capable of inducing expression of IL-6 in both donors; also recorded: the most potent”. The “Proinflammatory cytokines such as IFNg, IL12 in blood” value in [2] is reported as “significant increase in proinflammatory cytokines”. In addition, a half-maximal response in [7] (EC50) required 1670 nM. For the same compound, the “Remote loading efficiency 1 h (%)” value in [10] (formulation F1, HEPES) is 89%; in [10] (formulation F2, HEPES), 89%. Further, the “Remote loading efficiency 3 h (%)” value in data set [10] (formulation F1, HEPES) amounted to 92%; in data set [10] (formulation F2, HEPES), 92%. Besides, the “Weight of tumor bearing mice” value in data set [5] was “more substantial weight loss”.
